Data: paper PMC6934700, “Structure-Guided Design of a Fluorescent Probe for the Visualization of FtsZ in Clinically Important Gram-Positive and Gram-Negative Bacterial Pathogens” (Scientific Reports, 2019)
Read-outs that look alike come from different tables or passages of the source.

Experiments:
S. pneumoniae (SpnFtsZ) = target: T1, S. pneumoniae (SpnFtsZ) (Streptococcus pneumoniae, UniProt A0A0H2ZNE0); assay: Fluorescence anisotropy binding of BOFP to SpnFtsZ; details: for Kd: 50 mM Tris-HCl (pH 7.6), 50 mM KCl, 0.1 µM BOFP
T1 sequence (A0A0H2ZNE0 1-419): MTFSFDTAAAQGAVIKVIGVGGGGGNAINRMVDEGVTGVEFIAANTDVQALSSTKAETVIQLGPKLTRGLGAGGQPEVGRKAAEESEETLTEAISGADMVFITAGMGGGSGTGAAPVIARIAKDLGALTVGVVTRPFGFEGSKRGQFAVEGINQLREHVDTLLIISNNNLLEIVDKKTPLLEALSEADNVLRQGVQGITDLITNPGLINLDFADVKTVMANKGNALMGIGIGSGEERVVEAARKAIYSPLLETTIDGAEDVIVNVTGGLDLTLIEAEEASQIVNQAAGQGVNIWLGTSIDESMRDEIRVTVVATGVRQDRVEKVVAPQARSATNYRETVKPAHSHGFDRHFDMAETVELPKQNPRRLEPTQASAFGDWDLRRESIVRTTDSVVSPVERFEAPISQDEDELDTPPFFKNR
Procedure: (§1) Fluorescence anisotropy experiments were performed using an AVIV model ATF105 spectrofluorometer at 15, 25, or 37 °C. In these experiments, bandwidths were set to 4 nm in both the excitation and emission directions, with the excitation and emission wavelengths being set at 488 nm and 510 nm, respectively. BOFP (0.1 µM) was titrated with increasing concentrations (ranging from 0 to 12 µM) of FtsZ in 120 µL of buffer containing 50 mM Tris-HCl (pH 7.6) and 50 mM KCl. After each protein addition, the samples were equilibrated for 3 minutes, whereupon the fluorescence anisotropy was measured.
(§2) In this equation, r0 is the anisotropy of the protein-free compound, r∞ is the anisotropy of the compound in the presence of an infinite concentration of FtsZ, [C]tot is the total concentration of the compound, and [P]tot is the total concentration of protein with each addition. These analyses yielded the equilibrium dissociation constant (Kd) for each binding reaction.
(§3) The binding free energy (ΔG) at temperature T was derived from the corresponding Kd value determined at T using the following relationship:2 ΔG=−RTln(1/Kd)
(§4) The binding enthalpy (ΔH) and entropy (ΔS) were derived from linear fits of the ln(1/Kd) vs. 1/T plots shown in Figs. 3f and 5e using the following relationship:3 ln(1/Kd)=−ΔH/R(1/T)+ΔS/R

[1] = target: T2, FtsZ in E. faecalis ATCC 29212 cells (Enterococcus faecalis, UniProt O08439); assay: FtsZ visualization by fluorescence microscopy in live cells; type: cell-based; details: 1 µg/mL for 5 minutes
T2 construct: host or cells: E. faecalis ATCC 29212
T2 sequence (O08439 whole entry): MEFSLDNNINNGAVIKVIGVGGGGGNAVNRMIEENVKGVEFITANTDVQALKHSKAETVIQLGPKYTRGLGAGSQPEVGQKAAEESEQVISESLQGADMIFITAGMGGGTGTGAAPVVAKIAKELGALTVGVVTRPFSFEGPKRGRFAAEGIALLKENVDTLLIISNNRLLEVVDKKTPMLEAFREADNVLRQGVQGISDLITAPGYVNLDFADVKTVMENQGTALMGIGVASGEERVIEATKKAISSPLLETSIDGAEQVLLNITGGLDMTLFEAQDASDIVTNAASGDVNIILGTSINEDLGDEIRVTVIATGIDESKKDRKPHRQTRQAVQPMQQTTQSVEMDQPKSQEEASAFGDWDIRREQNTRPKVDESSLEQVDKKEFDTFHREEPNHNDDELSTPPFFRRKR
Procedure: (§5) All differential interference contrast (DIC) and fluorescence microscopy experiments were conducted using an Olympus BX50 microscope equipped with an X-cite Exacte 200 W mercury lamp, a 100× Olympus UPLSAPO oil immersion objective (1.40 aperture), as well as both Chroma ET-EGFP (FITC/Cy2) and ET mCherry, Texas Red filters. Images were captured using a QImaging Retiga R3 charge-coupled device (CCD) camera and the Ocular-Version 2.0 software package (QImaging).
(§6) For visualizing FtsZ in Gram-positive bacteria using BOFP, the bacterial cells were grown to log-phase in media suitable for each individual pathogen. Specifically, S. aureus NRS705 (MRSA) was grown in tryptic soy broth (TSB), E. faecalis ATCC 29212 and E. faecium ATCC 19434 were grown in lactobacilli MRS broth, S. agalactiae ATCC 12386 and S. pneumoniae ATCC 49619 were grown in TH broth, and S. pyogenes ATCC 19615 was grown in CAMH broth supplemented with 3% (v/v) LHB. For each Gram-positive bacterial strain, a total of 1 mL of cell culture was centrifuged at 15,000 × g for 1 minute and washed 2–3 times with 1 mL of PBS. After the final wash, the pelleted cells were resuspended in 500 µL of PBS containing 1 µg/mL of BOFP and incubated in the dark for 5 minutes at room temperature. The cells were then centrifuged at 15,000 × g for 1 minute, washed twice with 1 mL of PBS, and subsequently resuspended in 200 µL of PBS. […]

[2] = tested on: FtsZ in E. faecium ATCC 19434 cells; assay: as above; type: cell-based, Enterococcus faecium; details: 1 µg/mL for 5 minutes
Procedure: as §5, §6

S. pyogenes (SpyFtsZ) = S. pyogenes (SpyFtsZ) (Streptococcus pyogenes, UniProt Q99YV7); assay: Fluorescence anisotropy binding of BOFP to SpyFtsZ; details: for Kd: 50 mM Tris-HCl (pH 7.6), 50 mM KCl, 0.1 µM BOFP
Sequence of S. pyogenes (SpyFtsZ) (Q99YV7 entry or part of it): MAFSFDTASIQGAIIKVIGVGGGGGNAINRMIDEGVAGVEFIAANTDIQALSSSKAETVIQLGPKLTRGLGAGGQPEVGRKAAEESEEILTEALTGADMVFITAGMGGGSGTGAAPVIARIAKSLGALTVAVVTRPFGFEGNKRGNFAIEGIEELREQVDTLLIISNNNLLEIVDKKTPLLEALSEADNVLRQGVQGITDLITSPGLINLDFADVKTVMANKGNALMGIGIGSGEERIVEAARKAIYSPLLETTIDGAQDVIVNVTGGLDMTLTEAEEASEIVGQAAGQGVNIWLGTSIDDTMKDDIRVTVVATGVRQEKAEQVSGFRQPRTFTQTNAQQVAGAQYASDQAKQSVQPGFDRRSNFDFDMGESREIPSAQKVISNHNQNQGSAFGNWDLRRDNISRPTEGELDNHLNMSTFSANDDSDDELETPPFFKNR
Procedure: as §1, §2, §3, §4
(§7) In comparative control experiments, the anisotropy of 0.1 µM BODIPY FL-COOH or BOFP alone or in the presence of SaFtsZ (10 µM), SpyFtsZ (10 µM), KpFtsZ (2 µM), or PaFtsZ (2 µM) was measured at 37 °C in the same buffer described above.

P. aeruginosa (PaFtsZ) = target: T3, P. aeruginosa (PaFtsZ) (Pseudomonas aeruginosa, UniProt P47204); assay: Fluorescence anisotropy binding of BOFP to PaFtsZ; details: for Kd: 50 mM Tris-HCl (pH 7.6), 50 mM KCl, 0.1 µM BOFP
T3 construct: 6xHis (C); made in house; host or cells: E. coli BLR (DE3), pET-22b(+)
T3 sequence (P47204 1-394): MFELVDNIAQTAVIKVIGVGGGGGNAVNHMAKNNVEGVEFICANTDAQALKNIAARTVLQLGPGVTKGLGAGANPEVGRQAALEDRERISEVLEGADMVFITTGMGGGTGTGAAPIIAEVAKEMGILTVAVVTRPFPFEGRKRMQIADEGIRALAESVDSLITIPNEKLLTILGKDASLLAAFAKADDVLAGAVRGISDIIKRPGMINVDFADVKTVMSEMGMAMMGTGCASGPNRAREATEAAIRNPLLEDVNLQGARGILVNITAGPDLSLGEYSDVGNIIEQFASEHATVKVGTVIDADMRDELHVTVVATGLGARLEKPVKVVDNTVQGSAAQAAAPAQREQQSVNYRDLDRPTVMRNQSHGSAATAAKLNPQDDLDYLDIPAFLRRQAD
Procedure: as §1, §2, §3, §4, §7

[3] = tested on: FtsZ in S. pneumoniae ATCC 49619 cells; assay: FtsZ visualization by fluorescence microscopy in live cells; type: cell-based, Streptococcus pneumoniae; details: 1 µg/mL for 5 minutes
Procedure: as §5, §6

[4] = calculated at T = 310 K (37 °C) from Kd
[5] = from linear fit of ln(1/Kd) vs. 1/T

`CC1=CC(C)=[N+]2C1=Cc1ccc(CCC(=O)OCC(Oc3ccc(F)c(C(N)=O)c3F)c3nc(-c4ccc(C(F)(F)F)cc4)c(Br)o3)n1[B-]2(F)F` (stereo not drawn) [BOFP] was tested, and the Kd (S. pneumoniae (SpnFtsZ); 15 °C, read-out: Kd - 15 °C) was 3020 ± 300 nM, the Kd (S. pneumoniae (SpnFtsZ); 25 °C, read-out: Kd - 25 °C) was 3490 ± 250 nM and the Kd (S. pneumoniae (SpnFtsZ); 37 °C, read-out: Kd - 37 °C) was 3810 ± 690 nM. The ΔG (S. pneumoniae (SpnFtsZ); [4]) was -7.7 ± 0.1 kcal/mol, the ΔH (S. pneumoniae (SpnFtsZ); [5]) was -1.9 ± 0.3 kcal/mol and the “Fluorescence staining / FtsZ labeling in live cells” value [1] was “bright bands of fluorescence staining are clearly visible at midcell”. The “Fluorescence staining / FtsZ labeling in live cells” value [2] was “bright bands of fluorescence staining are clearly visible at midcell”, the Kd (S. pyogenes (SpyFtsZ); 15 °C, read-out: Kd - 15 °C) was 910 ± 60 nM and the Kd (S. pyogenes (SpyFtsZ); 25 °C, read-out: Kd - 25 °C) was 1310 ± 80 nM. The Kd (S. pyogenes (SpyFtsZ); 37 °C, read-out: Kd - 37 °C) was 1550 ± 80 nM, the ΔG (S. pyogenes (SpyFtsZ); [4]) was -8.2 ± 0.1 kcal/mol and the ΔH (S. pyogenes (SpyFtsZ); [5]) was -4.3 ± 1.1 kcal/mol. The Kd (P. aeruginosa (PaFtsZ); 15 °C, read-out: Kd - 15 °C) was 230 ± 20 nM, the Kd (P. aeruginosa (PaFtsZ); 25 °C, read-out: Kd - 25 °C) was 360 ± 60 nM and the Kd (P. aeruginosa (PaFtsZ); 37 °C, read-out: Kd - 37 °C) was 580 ± 60 nM. For the same compound, the ΔG (P. aeruginosa (PaFtsZ); [4]) was -8.8 ± 0.1 kcal/mol, the ΔH (P. aeruginosa (PaFtsZ); [5]) was -7.7 ± 0.2 kcal/mol and the “Fluorescence staining / FtsZ labeling in live cells” value [3] was “bright bands of fluorescence staining are clearly visible at midcell”.
